# Experiments:
# HuT78 cells [1] = assay: Mitochondrial membrane potential (∆Ψm), TMRE flow cytometry; type: cell-based, human; conditions: HuT78, 5 μM, 24 h
# Procedure: Changes in the (∆Ψm) were measured using TMRE (tetramethylrhodamine, ethyl ester and perchlorate) dye. In brief, the tested cells (HuT 78) were plated in 6-well plates at a concentration of 5 × 10^5 cells per well and treated with 5 μM of the compounds 5d and 12d. After 24 h of treatment, the cells were collected, centrifuged for 6 min at 1100 rpm, and stained with 200 nM of TMRE dye according to the kit protocol (TMRE Mitochondrial Membrane Potential Assay Kit, abcam, Cambridge, UK). The positive control cells were treated with 20 μM FCCP (carbonyl cyanide-p-trifluoromethoxyphenylhydrazone) for 10 min. The cells were analyzed by flow cytometry (BD FACSCalibur, Becton Dickinson, San Jose, CA, USA) and FlowJo software (FlowJo, LLC, Ashland, OR, USA).
# HuT78 cells [2] = assay: Annexin V-FITC/PI apoptosis detection; type: cell-based, human; conditions: HuT78, 5 μM, 24 h
# Procedure: The proapoptotic potential of compounds 5d and 12d was tested on the HuT78 cells using the Annexin V-FITC Apoptosis Staining/Detection Kit (ab14085; abcam, UK). The cells were plated in 6-well plates at a concentration of 5 × 10^5 cells/well and treated for 24 h with 12d at a concentration of 5 μM. After the incubation period, the cells were collected and centrifuged at 1100 rpm for 6 min, stained according to the manufacturer‘s protocol, and analyzed by flow cytometry (BD FACSCalibur, Becton Dickinson, San Jose, CA, USA) using FlowJo software (FlowJo, LLC, Ashland, OR, USA).
smiles,measurement,setting,value
"Clc1ccc2c(Nc3cccc(-c4nc5ccccc5[nH]4)c3)ccnc2c1 [Compound 5d, N-(3-(1H-benzo[d]imidazol-2-yl)phenyl)-7-chloroquinolin-4-amine]",cells with mitochondrial membrane disruption / change in ∆Ψm,HuT78 cells [1],23.9%
same,cells alive,HuT78 cells [2],about 64%
same,cells in early apoptosis,HuT78 cells [2],24.75%
same,cells in late stage of apoptosis/necrosis,HuT78 cells [2],8.3%

# Reference: publication PMC9866588, “Novel 7-Chloro-4-aminoquinoline-benzimidazole Hybrids as Inhibitors of Cancer Cells Growth: Synthesis, Antiproliferative Activity, in Silico ADME Predictions, and Docking” (Molecules, 2023)
